The values that follow come from US20220089592A1, “IMIDAZO[1,2-A]PYRIDINYL DERIVATIVES AS IRAK4 INHIBITORS” (priority 2019, published 2022).

Where a name gives a salt, the structure may show the parent alone.

The target of this assay is T1, IRAK4 (Homo sapiens, UniProt Q9NWZ3).
T1 sequence (Q9NWZ3 1-460): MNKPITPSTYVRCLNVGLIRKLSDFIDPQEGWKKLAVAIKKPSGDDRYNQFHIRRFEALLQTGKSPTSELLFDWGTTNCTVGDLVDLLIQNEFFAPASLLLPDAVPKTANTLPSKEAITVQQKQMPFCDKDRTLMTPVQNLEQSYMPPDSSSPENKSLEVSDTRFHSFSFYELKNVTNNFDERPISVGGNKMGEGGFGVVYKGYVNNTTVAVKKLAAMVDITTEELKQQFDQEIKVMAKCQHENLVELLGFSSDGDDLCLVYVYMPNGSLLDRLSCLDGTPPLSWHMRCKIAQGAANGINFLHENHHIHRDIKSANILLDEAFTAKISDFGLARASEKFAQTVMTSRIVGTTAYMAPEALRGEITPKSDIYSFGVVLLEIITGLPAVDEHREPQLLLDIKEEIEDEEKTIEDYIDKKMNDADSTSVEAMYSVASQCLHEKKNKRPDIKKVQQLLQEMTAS
The assay is described as follows: 2-hour 1 mM ATP IRAK4 Biochemical assay (as above, but with 100 pM IRAK4 and 1 mM ATP). Particulars: IRAK4 MSD BIOCHEMICAL (1 mM ATP) IC50 (μM), 100 pM IRAK4, 2 hours. The procedure, abridged: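 MSD electrochemiluminescence read-out: biotinylated peptide product bound to streptavidin plates, probed with anti-P-Thr rabbit antibody and Sulfo-Tag goat anti-rabbit. Kinase reaction used 1 mM ATP and 100 pM IRAK4 over 2 hours before EDTA quench.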
For `CC(C)Oc1c(NC(=O)c2ccn(C(F)F)n2)cn2cc(C34COC(C)(C3)C4)nc2c1F` [Example 547, 1-(difluoromethyl)-N-(8-fluoro-7-isopropoxy-2-(1-methyl-2-oxabicyclo[2.1.1]hexan-4-yl)imidazo[1,2-a]pyridin-6-yl)-1H-pyrazole-3-carboxamide], the midpoint of inhibition, the IC50, lay at 0.001 µM.

`CC(C)Oc1c(NC(=O)c2cccc3ccnn23)cn2cc(C34COC(C)(C3)C4)nc2c1F` [Example 548, N-(8-fluoro-7-isopropoxy-2-(1-methyl-2-oxabicyclo[2.1.1]hexan-4-yl)imidazo[1,2-a]pyridin-6-yl)pyrazolo[1,5-a]pyridine-7-carboxamide 2,2,2-trifluoroacetate]: half-maximal inhibition (IC50) required 0.001 µM. This counts as single-digit nanomolar.

As to `COc1nc(NC(=O)c2cccc(C(F)F)n2)cn2cc(C3CCCOC3)nc12` (stereo not shown) [Example 549, 6-(difluoromethyl)-N-(8-methoxy-2-(tetrahydro-2H-pyran-3-yl)imidazo[1,2-a]pyrazin-6-yl)picolinamide], the IC50 (in general, the concentration needed to halve the response being measured) was determined as 0.005 µM.

The molecule `COc1nc(NC(=O)c2cccc(C(F)F)n2)cn2cc(C34COCC3C4)nc12` (stereo not shown) [Example 550, N-(2-(3-oxabicyclo[3.1.0]hexan-1-yl)-8-methoxyimidazo[1,2-a]pyrazin-6-yl)-6-(difluoromethyl)picolinamide 2,2,2-trifluoroacetate] came in with an IC50 of 0.055 µM.

In turn, `COc1nc(NC(=O)c2cccc(C(F)F)n2)cn2cc(C3C4COCC43)nc12` (stereo not shown) [Example 551, N-(2-(3-oxabicyclo[3.1.0]hexan-6-yl)-8-methoxyimidazo[1,2-a]pyrazin-6-yl)-6-(difluoromethyl)picolinamide 2,2,2-trifluoroactetate] came in with an IC50 of 0.026 µM.

For `COc1nc(NC(=O)c2cccc(C(F)F)n2)cn2cc(C34CC(C(F)F)(C3)C4)nc12` [Example 552, 6-(difluoromethyl)-N-(2-(3-(difluoromethyl)bicyclo[1.1.1]pentan-1-yl)-8-methoxyimidazo[1,2-a]pyrazin-6-yl)picolinamide 2,2,2-trifluoroacetate], the IC50 was found to be 0.017 µM. This IC50 lies about 1.5-fold lower than the previous one.

The molecule `COc1nc(NC(=O)c2cccc(C(F)F)n2)cn2cc(C34CC(OC)(C3)C4)nc12` [Example 553, 6-(difluoromethyl)-N-(8-methoxy-2-(3-methoxybicyclo[1.1.1]pentan-1-yl)imidazo[1,2-a]pyrazin-6-yl)picolinamide 2,2,2-trifluoroacetate] gave an IC50 of 0.011 µM.

`COc1nc(NC(=O)c2cccc(C(F)F)n2)cn2cc(C34COC(C)(C3)C4)nc12` [Example 554, 6-(difluoromethyl)-N-(8-methoxy-2-(1-methyl-2-oxabicyclo[2.1.1]hexan-4-yl)imidazo[1,2-a]pyrazin-6-yl)picolinamide 2,2,2-trifluoroacetate] returned an IC50 of 0.011 µM. This counts as double-digit nanomolar.

In turn, `COc1nc(NC(=O)c2cccc(C(F)F)n2)cn2cc(C34CCOC(C)(C3)C4)nc12` [Example 555, 6-(difluoromethyl)-N-(8-methoxy-2-(1-methyl-2-oxabicyclo[3.1.1]heptan-5-yl)imidazo[1,2-a]pyrazin-6-yl)picolinamide] returned an IC50 of 0.007 µM.

As for `COc1nc(NC(=O)c2cccc(C(F)F)n2)cn2cc(C3C4CCOCC43)nc12` (stereo not shown) [Example 556, N-(2-(3-oxabicyclo[4.1.0]heptan-7-yl)-8-methoxyimidazo[1,2-a]pyrazin-6-yl)-6-(difluoromethyl)picolinamide 2,2,2-trifluoroacetate], the IC50 was found to be 0.005 µM.

The molecule `COc1nc(NC(=O)c2cccc(C(F)F)n2)cn2cc(C3CC4(CCOC4)C3)nc12` (stereo not shown) [Example 557, 6-(difluoromethyl)-N-(8-methoxy-2-(6-oxaspiro[3.4]octan-2-yl)imidazo[1,2-a]pyrazin-6-yl)picolinamide 2,2,2-trifluoroacetate] had an IC50 of 0.006 µM.

Consider `COc1nc(NC(=O)c2cccc(C(F)F)n2)cn2cc(C3CC34CCOCC4)nc12` (stereo not shown) [Example 558, 6-(difluoromethyl)-N-(8-methoxy-2-(6-oxaspiro[2.5]octan-1-yl)imidazo[1,2-a]pyrazin-6-yl)picolinamide 2,2,2-trifluoroacetate], for which half-maximal inhibition (IC50) was put at 0.044 µM. Compared with the last molecule, the IC50 is about 7.3-fold higher.

For the molecule `COc1nc(NC(=O)c2cccc(C(F)F)n2)cn2cc(C34COC(CF)(C3)C4)nc12` [Example 559, 6-(difluoromethyl)-N-(2-(1-(fluoromethyl)-2-oxabicyclo[2.1.1]hexan-4-yl)-8-methoxyimidazo[1,2-a]pyrazin-6-yl)picolinamide], the IC50 turned out to be 0.012 µM.

`COc1nc(NC(=O)c2cccc(C(F)F)n2)cn2cc(C3CCOC(C)(C)C3)nc12` (stereo not shown) [Example 560, 6-(difluoromethyl)-N-(2-(2,2-dimethyltetrahydro-2H-pyran-4-yl)-8-methoxyimidazo[1,2-a]pyrazin-6-yl)picolinamide 2,2,2-trifluoroacetate]: inhibition was half-maximal at 0.002 µM (IC50).

Take `COc1nc(NC(=O)c2cccc(C(F)F)n2)cn2cc(C34CCC(CC3)OC4)nc12` [Example 561, N-(2-(2-oxabicyclo[2.2.2]octan-4-yl)-8-methoxyimidazo[1,2-a]pyrazin-6-yl)-6-(difluoromethyl)picolinamide]: the IC50 was 0.051 µM.

Turning to `COc1nc(NC(=O)c2cccc(C(F)F)n2)cn2cc(C3CC3)nc12` [Example 562, N-(2-cyclopropyl-8-methoxyimidazo[1,2-a]pyrazin-6-yl)-6-(difluoromethyl)picolinamide 2,2,2-trifluoroacetate], the IC50 was determined as 0.053 µM.

Regarding `COc1nc(NC(=O)c2cccc(C(F)F)n2)cn2cc(CCOC(F)(F)F)nc12` [Example 563, 6-(difluoromethyl)-N-(8-methoxy-2-(2-(trifluoromethoxy)ethyl)imidazo[1,2-a]pyrazin-6-yl)picolinamide 2,2,2-trifluoroacetate], half-maximal inhibition (IC50) required 0.046 µM.

The molecule `COc1nc2nc(C3CC(OC)C3)cn2cc1NC(=O)c1cccc(C(F)F)n1` (stereo not shown) [Example 564, 6-(difluoromethyl)-N-(7-methoxy-2-(3-methoxycyclobutyl)imidazo[1,2-a]pyrimidin-6-yl)picolinamide] had an IC50 of 0.032 µM.

In the case of `COc1nc2nc(C34CC(OC)(C3)C4)cn2cc1NC(=O)c1cccc(C(F)F)n1` [Example 565, 6-(difluoromethyl)-N-(7-methoxy-2-(3-methoxybicyclo[1.1.1]pentan-1-yl)imidazo[1,2-a]pyrimidin-6-yl)picolinamide], it took 0.01 µM to reach half-maximal inhibition (IC50).

Molecule `COc1nc2nc(C34CC(F)(C3)C4)cn2cc1NC(=O)c1cccc(C(F)F)n1` [Example 566, 6-(difluoromethyl)-N-(2-(3-fluorobicyclo[1.1.1]pentan-1-yl)-7-methoxyimidazo[1,2-a]pyrimidin-6-yl)picolinamide 2,2,2-trifluoroacetate] had a 50% inhibitory concentration (IC50) of 0.054 µM.

As for `COc1nc2nc(C34COC(C)(C3)C4)cn2cc1NC(=O)c1cccc(C(F)F)n1` [Example 567, 6-(difluoromethyl)-N-(7-methoxy-2-(1-methyl-2-oxabicyclo[2.1.1]hexan-4-yl)imidazo[1,2-a]pyrimidin-6-yl)picolinamide 2,2,2-trifluoroacetate], the midpoint of inhibition, the IC50, lay at 0.008 µM.

Turning to `COc1nc2nc(C3C4COCC43)cn2cc1NC(=O)c1cccc(C(F)F)n1` (stereo not shown) [Example 568, N-(2-(3-oxabicyclo[3.1.0]hexan-6-yl)-7-methoxyimidazo[1,2-a]pyrimidin-6-yl)-6-(difluoromethyl)picolinamide 2,2,2-trifluoroacetate], the IC50 worked out at 0.009 µM.

Consider `COc1nc2nc(C3CCCOC3)cn2cc1NC(=O)c1cccc(C(F)F)n1` (stereo not shown) [Example 569, 6-(difluoromethyl)-N-(7-methoxy-2-(tetrahydro-2H-pyran-3-yl)imidazo[1,2-a]pyrimidin-6-yl)picolinamide], for which half-maximal inhibition (IC50) was put at 0.004 µM. This IC50 is about 2.2-fold lower than that of the molecule before.

The molecule `CCOc1nc2nc(C3CCOCC3)cn2cc1NC(=O)c1ccc2c(n1)CCC2` [Example 570, N-(7-ethoxy-2-(tetrahydro-2H-pyran-4-yl)imidazo[1,2-a]pyrimidin-6-yl)-6,7-dihydro-5H-cyclopenta[b]pyridine-2-carboxamide hydrochloride] displayed an IC50 of 0.005 µM.

Turning to `CC(C)Oc1nc2nc(C34CC(C3)C4)cn2cc1NC(=O)c1cccc(C(F)F)n1` [Example 573, N-(2-(bicyclo[1.1.1]pentan-1-yl)-7-isopropoxyimidazo[1,2-a]pyrimidin-6-yl)-6-(difluoromethyl)picolinamide 2,2,2-trifluoroacetate], the IC50 amounted to 0.003 µM.

In the case of `CCCOc1nc(NC(=O)c2cccc(C(F)F)n2)cn2cc(C34COC(C)(C3)C4)nc12` [Example 574, 6-(difluoromethyl)-N-(2-(1-methyl-2-oxabicyclo[2.1.1]hexan-4-yl)-8-propoxyimidazo[1,2-a]pyrazin-6-yl)picolinamide], the IC50 was found to be 0.002 µM.

Take `CC(C)Oc1cc2nc(C34COC(C)(C3)C4)c(Cl)n2cc1NC(=O)c1cccc(C(F)F)n1` [Example 575, N-(3-chloro-7-isopropoxy-2-(1-methyl-2-oxabicyclo[2.1.1]hexan-4-yl)imidazo[1,2-a]pyridin-6-yl)-6-(difluoromethyl)picolinamide 2,2,2-trifluoroacetate]: the IC50 came to 0.012 µM.

In turn, `CC(C)Oc1nc2nc(C34COC(C)(C3)C4)c(Cl)n2cc1NC(=O)c1cccc(C(F)F)n1` [Example 576, N-(3-chloro-7-isopropoxy-2-(1-methyl-2-oxabicyclo[2.1.1]hexan-4-yl)imidazo[1,2-a]pyrimidine-6-yl)-6-(difluoromethyl)picolinamide 2,2,2-trifluoroacetate] gave an IC50 of 0.199 µM.
